Source: patent US9446039B2, “Aminoheteroaryl compounds as MTH1 inhibitors” (CEMM—FORSCHUNGSZENTRUM FÜR MOLEKULARE MEDIZIN GMBH, priority 2012, dated 2016)

How the values were obtained:
Format in all cases: binding
[1] = biological target: SW480 colon carcinoma cells lysate proteins (Homo sapiens, UniProt P06753); conditions: PreyGene TPM3
[2] = biological target: SW480 colon carcinoma cells lysate proteins (Homo sapiens, UniProt P27695); conditions: PreyGene APEX1
[3] = biological target: T1, SW480 colon carcinoma cells lysate proteins (Homo sapiens, UniProt Q5XKE5); conditions: PreyGene KRT79; SW480 cells
T1 sequence (Q5XKE5 1-535): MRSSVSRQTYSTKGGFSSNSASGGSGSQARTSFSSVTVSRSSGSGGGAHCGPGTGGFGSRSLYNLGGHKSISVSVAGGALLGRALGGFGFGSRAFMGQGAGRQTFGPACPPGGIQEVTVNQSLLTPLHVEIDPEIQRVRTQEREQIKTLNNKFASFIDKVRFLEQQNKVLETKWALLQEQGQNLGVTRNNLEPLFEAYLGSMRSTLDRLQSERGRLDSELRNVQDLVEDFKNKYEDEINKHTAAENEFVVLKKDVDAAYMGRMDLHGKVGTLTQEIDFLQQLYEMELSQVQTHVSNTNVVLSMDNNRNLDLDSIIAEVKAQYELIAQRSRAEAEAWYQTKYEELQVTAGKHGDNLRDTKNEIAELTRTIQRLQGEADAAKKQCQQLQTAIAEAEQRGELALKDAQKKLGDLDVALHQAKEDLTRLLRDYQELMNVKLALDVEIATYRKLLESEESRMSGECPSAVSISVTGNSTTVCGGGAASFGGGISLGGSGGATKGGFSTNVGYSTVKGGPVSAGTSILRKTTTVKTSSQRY

[4] = biological target: SW480 colon carcinoma cells lysate proteins (Homo sapiens, UniProt P06744); conditions: PreyGene GPI
[5] = biological target: SW480 colon carcinoma cells lysate proteins (Homo sapiens, UniProt Q9UBR2); conditions: PreyGene CTSZ
SW480 colon carcinoma cells lysate proteins (Homo sapiens, UniProt Q9UBR2), sequence (Q9UBR2 62-303): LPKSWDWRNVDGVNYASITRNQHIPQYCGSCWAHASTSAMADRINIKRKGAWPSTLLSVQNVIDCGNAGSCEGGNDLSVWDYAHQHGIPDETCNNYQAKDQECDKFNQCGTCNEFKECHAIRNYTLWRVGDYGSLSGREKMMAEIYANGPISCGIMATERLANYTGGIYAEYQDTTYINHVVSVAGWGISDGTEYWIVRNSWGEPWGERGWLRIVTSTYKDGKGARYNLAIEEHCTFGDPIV

[6] = biological target: SW480 colon carcinoma cells lysate proteins (Homo sapiens, UniProt P67936); conditions: PreyGene TPM4
SW480 colon carcinoma cells lysate proteins (Homo sapiens, UniProt P67936), sequence (P67936 whole entry): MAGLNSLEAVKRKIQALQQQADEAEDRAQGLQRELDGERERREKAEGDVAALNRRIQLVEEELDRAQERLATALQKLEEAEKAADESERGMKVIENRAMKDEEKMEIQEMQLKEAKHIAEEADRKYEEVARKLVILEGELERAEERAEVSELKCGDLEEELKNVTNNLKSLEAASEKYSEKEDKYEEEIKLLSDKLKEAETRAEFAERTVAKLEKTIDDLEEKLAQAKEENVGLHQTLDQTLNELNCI

[7] = biological target: T2, SW480 colon carcinoma cells lysate proteins (Homo sapiens, UniProt Q9Y383); conditions: PreyGene LUC7L2
T2 sequence (Q9Y383 1-392): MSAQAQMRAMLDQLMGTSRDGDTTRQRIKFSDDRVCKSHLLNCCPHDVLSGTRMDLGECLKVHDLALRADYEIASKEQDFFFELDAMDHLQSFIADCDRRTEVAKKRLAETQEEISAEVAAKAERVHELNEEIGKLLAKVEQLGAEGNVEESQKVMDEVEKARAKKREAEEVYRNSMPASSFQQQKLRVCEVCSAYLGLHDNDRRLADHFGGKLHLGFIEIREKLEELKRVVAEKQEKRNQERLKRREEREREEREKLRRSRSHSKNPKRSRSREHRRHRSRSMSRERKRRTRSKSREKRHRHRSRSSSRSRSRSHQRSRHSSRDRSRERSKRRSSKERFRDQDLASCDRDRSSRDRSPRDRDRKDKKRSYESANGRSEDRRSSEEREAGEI

[8] = biological target: T3, SW480 colon carcinoma cells lysate proteins (Homo sapiens, UniProt Q13442); conditions: PreyGene PDAP1; SW480 cells
T3 sequence (Q13442 1-181): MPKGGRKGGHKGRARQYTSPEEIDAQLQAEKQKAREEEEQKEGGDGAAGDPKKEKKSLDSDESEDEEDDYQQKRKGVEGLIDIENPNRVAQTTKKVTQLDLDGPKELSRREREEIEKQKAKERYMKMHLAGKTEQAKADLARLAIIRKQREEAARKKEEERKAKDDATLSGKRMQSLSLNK

[9] = biological target: T4, SW480 colon carcinoma cells lysate proteins (Homo sapiens, UniProt Q9BVC6); conditions: PreyGene TMEM109; SW480 cells
T4 sequence (Q9BVC6 34-243): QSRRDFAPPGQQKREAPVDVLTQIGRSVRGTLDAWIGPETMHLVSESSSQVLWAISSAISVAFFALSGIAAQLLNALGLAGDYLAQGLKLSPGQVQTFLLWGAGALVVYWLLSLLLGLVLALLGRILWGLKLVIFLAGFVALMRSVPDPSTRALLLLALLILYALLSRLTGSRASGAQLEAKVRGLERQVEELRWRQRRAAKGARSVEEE

[10] = biological target: SW480 colon carcinoma cells lysate proteins (Homo sapiens, UniProt P37802); conditions: PreyGene TAGLN2
SW480 colon carcinoma cells lysate proteins (Homo sapiens, UniProt P37802), sequence (P37802 whole entry): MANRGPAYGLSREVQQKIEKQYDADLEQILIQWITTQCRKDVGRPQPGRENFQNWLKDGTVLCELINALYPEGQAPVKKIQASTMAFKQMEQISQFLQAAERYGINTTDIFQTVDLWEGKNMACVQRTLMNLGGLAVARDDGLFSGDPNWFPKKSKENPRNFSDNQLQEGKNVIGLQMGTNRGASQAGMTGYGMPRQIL

[11] = biological target: SW480 colon carcinoma cells lysate proteins (Homo sapiens, UniProt P28070); conditions: PreyGene PSMB4
SW480 colon carcinoma cells lysate proteins (Homo sapiens, UniProt P28070), sequence (P28070 46-264): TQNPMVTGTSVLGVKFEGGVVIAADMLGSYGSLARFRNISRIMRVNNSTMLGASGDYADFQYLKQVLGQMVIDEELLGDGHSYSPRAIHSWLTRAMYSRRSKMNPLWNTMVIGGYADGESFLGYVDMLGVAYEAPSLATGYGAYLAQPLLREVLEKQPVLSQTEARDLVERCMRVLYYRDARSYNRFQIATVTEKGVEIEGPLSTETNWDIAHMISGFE

SW480 colon carcinoma cells lysate proteins (Homo sapiens, UniProt P27695), sequence (P27695 whole entry): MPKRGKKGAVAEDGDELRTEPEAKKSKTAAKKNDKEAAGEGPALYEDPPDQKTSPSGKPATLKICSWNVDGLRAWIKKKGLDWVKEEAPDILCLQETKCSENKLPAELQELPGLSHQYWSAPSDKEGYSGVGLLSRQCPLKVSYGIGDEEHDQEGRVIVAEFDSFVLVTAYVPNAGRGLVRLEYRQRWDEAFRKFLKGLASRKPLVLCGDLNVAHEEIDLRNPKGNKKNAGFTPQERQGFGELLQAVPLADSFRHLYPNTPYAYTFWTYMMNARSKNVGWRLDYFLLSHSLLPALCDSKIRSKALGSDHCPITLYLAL
SW480 colon carcinoma cells lysate proteins (Homo sapiens, UniProt P06753), sequence (P06753 whole entry): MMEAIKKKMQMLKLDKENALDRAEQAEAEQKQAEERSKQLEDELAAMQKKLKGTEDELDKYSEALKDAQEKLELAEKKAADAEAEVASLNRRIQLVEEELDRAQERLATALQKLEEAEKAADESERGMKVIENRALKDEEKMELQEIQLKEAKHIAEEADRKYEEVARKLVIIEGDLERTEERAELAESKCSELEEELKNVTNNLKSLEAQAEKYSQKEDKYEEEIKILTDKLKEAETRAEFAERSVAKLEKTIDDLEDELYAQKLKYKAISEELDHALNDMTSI

C[C@H](Oc1cc(-c2cnn(C3CCNCC3)c2)cnc1N)c1c(Cl)ccc(F)c1Cl [(5)-crizotinib]
0.1795: AvgP [10]
0.3217: AvgP [5]
4: SC.Exp. 1-1 [4] | Sum (SC.Exp.) [5]
9: Sum (SC.Exp.) [4]
0.4193: AvgP [6]
0.1875: AvgP [11]
2: SC.Exp. 1-1 [1] | SC.Exp. 1-1 [2] | Sum (SC.Exp.) [2] | SC.Exp. 1-1 [5] | SC.Exp. 1-2 [5] | SC.Exp. 1-2 [6] | SC.Exp. Sum [8] | SC.Exp. 1-1 [11] | Sum (SC.Exp.) [11]
0.3986: AvgP [4]
6: Sum (SC.Exp.) [7] | SC.Exp. 1-1 [10]
0: SC.Exp. 2-1 [1] | SC.Exp. 2-2 [1] | SC.Exp. 1-2 [2] | SC.Exp. 2-1 [2] | SC.Exp. 2-2 [2] | AvgP [3] | SC.Exp. 1-1 [3] | SC.Exp. 2-1 [3] | SC.Exp. 2-2 [3] | SC.Exp. 2-1 [4] | SC.Exp. 2-2 [4] | SC.Exp. 2-1 [5] | SC.Exp. 2-2 [5] | SC.Exp. 2-1 [6] | SC.Exp. 2-2 [6] | SC.Exp. 2-1 [7] | SC.Exp. 2-2 [7] | AvgP [8] | SC.Exp. 2-1 [8] | SC.Exp. 2-2 [8] | AvgP [9] | SC.Exp. 2-1 [9] | SC.Exp. 2-1 [10] | SC.Exp. 2-2 [10] | SC.Exp. 1-2 [11] | SC.Exp. 2-1 [11] | SC.Exp. 2-2 [11]
5: Sum (SC.Exp.) [1] | SC.Exp. 1-2 [4] | SC.Exp. 1-1 [6] | SC.Exp. 1-2 [10]
11: Sum (SC.Exp.) [10]
0.4204: AvgP [1]
1: SC.Exp. 1-2 [3] | SC.Exp. Sum [3] | SC.Exp. 1-1 [8] | SC.Exp. 1-2 [8] | SC.Exp. 1-1 [9] | SC.Exp. 1-2 [9] | SC.Exp. 2-2 [9]
7: Sum (SC.Exp.) [6]
3: SC.Exp. 1-2 [1] | SC.Exp. 1-1 [7] | SC.Exp. 1-2 [7] | SC.Exp. Sum [9]
0.1792: AvgP [2]
0.3775: AvgP [7]
